Patent US20170321214A1, “DEAD GUIDES FOR CRISPR TRANSCRIPTION FACTORS” (The Broad Institute Inc., priority 2014, published 2017)

What was measured:
Factor VII = conditions: LNP siRNA systems containing these lipids; cited from earlier work
HBG1/2 promoter = assay: Off-target transcriptional activation using RNAseq; format: cell-based
Procedure: FIG. 7A-7C: The plots of FIG. 7 illustrate embodiments in which dRNAs can specifically upregulate gene expression, and have a specificity profile similar to 20 bp sgRNA activators. Sequences targeted to the HBG1/2 promoter were tested for off-target transcriptional activation using RNAseq. 20 nt sgRNAs with MS2 binding loops were co-transfected with dCas9 and the MPH activation complex. […] (In all cases, N=3 replicates/group).

dystrophin = conditions: across 48 weeks, average; cited from earlier work
[1] = 20 nt sgRNA with MS2 loops + dCas9 + MPH

## 1,2-dilinoleyloxy-keto-N,N-dimethyl-3-aminopropane [DLinKDMA]
Factor VII
  gene silencing potency series: DLinKC2-DMA>DLinKDMA>DLinDMA>>DLinDAP

## CCCCC/C=C\C/C=C\CCCCCCCC(=O)OCC(CN(C)C)OC(=O)CCCCCCC/C=C\C/C=C\CCCCC (stereo not drawn) [DLinDAP, 1,2-dilineoyl-3-dimethylammonium-propane]
Factor VII
  gene silencing potency series: DLinKC2-DMA>DLinKDMA>DLinDMA>>DLinDAP

## CCCCC/C=C\C/C=C\CCCCCCCCOCC(CN(C)C)OCCCCCCCC/C=C\C/C=C\CCCCC (stereo not drawn) [DLinDMA, 1,2-dilinoleyloxy-3-N,N-dirnethylamiopropane]
Factor VII
  gene silencing potency series: DLinKC2-DMA>DLinKDMA>DLinDMA>>DLinDAP

## CCCCC/C=C\C/C=C\CCCCCCCCC1(CCCCCCCC/C=C\C/C=C\CCCCC)OCC(CCN(C)C)O1 (stereo not drawn) [DLinKC2-DMA, 1,2-dilinoleyl-4-(2-dimethylaminoethyl)-[1,3]-dioxolane]
Factor VII
  gene silencing potency series: DLinKC2-DMA>DLinKDMA>DLinDMA>>DLinDAP

## SEQ ID NO 90: 20 nt sgRNA with MS2 binding loops targeted to the HBG1/2 promoter, second guide (guide CCAGTGAGGCCAGGGGCCGG; listed as DNA, chemistry not given here)
HBG1/2 promoter; [1]
  significantly upregulated genes apart from HBG1/2: 55

## SEQ ID NO 97: dRNA targeted to the HBG1/2 promoter, second guide (guide GAGGCCAGGGGCCGG; listed as DNA, chemistry not given here)
HBG1/2 promoter; dRNA + active Cas9 + MPH
  significantly upregulated genes apart from HBG1/2: 31

## SEQ ID NO 120: 20 nt sgRNA with MS2 binding loops targeted to the HBG1/2 promoter, first guide (guide GGCTAGGGATGAAGAATAAA; listed as DNA, chemistry not given here)
HBG1/2 promoter; [1]
  significantly upregulated genes apart from HBG1/2: Zero

## SEQ ID NO 125: dRNA targeted to the HBG1/2 promoter, first guide (guide GGGATGAAGAATAAA; listed as DNA, chemistry not given here)
HBG1/2 promoter; dRNA + active Cas9 + MPH
  significantly upregulated genes apart from HBG1/2: Zero

## eteplirsen
dystrophin
  dystrophin positive fibers compared to baseline: 47%
